In patent US9616081B2, “Antitumor agent including low-dose irinotecan hydrochloride hydrate” (TAIHO PHARMACEUTICAL CO., LTD., priority 2013, dated 2017):
Counter-ions that a name gives are not always drawn.

Key:
[1] = system: human colon cancer cell line (KM20C); experiment: Reference Example: survival of mice intraperitoneally transplanted with KM20C, monotherapy; type: in vivo; conditions: i.v., weekly; for ILS (increase in life span): 6 weeks from Day 3; for Survival time (day) Mean ± SD: 6 weeks from Day 3, BALB/cA Jcl-nu mice
Description: Cultured cells (1×10^7 cells/mouse) of human colon cancer cell line (KM20C) were intraperitoneally transplanted into 5-6 weeks old BALB/cA Jcl-nu mice after birth, and the mice were assigned to each group so that the mean body weight of each group became equal. The date on which such grouping (n=10) was performed was taken as Day 0.
[…]. Starting the dug administration from Day 3, a 5-days' daily oral administration of the FTD/TPI combination drug with 2-days' rest was performed for 6 weeks, and CPT-11 was administered once in a week from the tail vein for 6 weeks.
As an index of the antitumor effect, the number of survivors of each group of mice and the survival time of each group was compared.

[2] = dose of 111 mg/kg/day; cited from earlier work
[3] = system: human gastric cancer cell line (SC-2); experiment: Example 3: combined administration test, SC-2 tumor in mice (RTV, TGI); conditions: Day 1, 8, i.v., q.d.

Question: With `CCc1c2c(nc3ccc(OC(=O)N4CCC(N5CCCCC5)CC4)cc13)-c1cc3c(c(=O)n1C2)COC(=O)[C@]3(O)CC` [CPT-11, irinotecan hydrochloride hydrate] as the compound, how does the “ILS (increase in life span)” value ([1]; 80 mg/kg/day) read?
Answer: Its value is 54.0%.

Question: What about the “Survival time (day) Mean ± SD” value ([1]; 80 mg/kg/day) of the same compound?
Answer: Its value is 61.6 ± 12.6 days.

Question: What about the “ILS (increase in life span)” value ([1]; 100 mg/kg/day) of the same compound?
Answer: The value was 81.3%.

Question: And the “Survival time (day) Mean ± SD” value ([1]; 100 mg/kg/day)?
Answer: The value was 72.5 ± 12.3 days.

Question: What about the death case reported [2] of the same compound?
Answer: The death case reported was “death case”.

Question: And the “TGI, tumor growth inhibition rate on Day 15” value ([3]; 40 mg/kg/day)?
Answer: The value was 64.6%.

Question: And the “TGI, tumor growth inhibition rate on Day 15” value ([3]; 80 mg/kg/day)?
Answer: Its value is 79.4%.
